Results on eleven molecules are retold here after patent publication US20230348376A1 (TEIJIN PHARMA LIMITED, priority 2020, published 2023).

In data set [1] the test system is rat oligodendrocyte progenitor cells. Kind of data set: Promotive activity of rat oligodendrocyte progenitor cell differentiation-1 (MBP gene expression, mRNA). The data set is classed as cell-based. The note with it: Rattus norvegicus, Oligodendrocyte progenitor cell, 96 h, read-out: promotive activity at T3 base (MBP gene expression; DMSO 0%, T3 100%), 4 days, MBP/β actin mRNA. How it is done: Regarding vitamin D derivatives, which was confirmed to act on the vitamin D receptor (VDR) in Example 352, the promotive activity of oligodendrocyte progenitor cell (OPC) differentiation was evaluated by MBP gene expression (mRNA).
A forebrain obtained from SD rat (Charles River Japan, 1 day old) was crushed with 70 μm Cell Strainer (Falcon #352350), and a cell suspension was prepared by collecting the cells in oligodendrocyte progenitor cell separation medium (20% FBS/2 mM Glutamax (Gibco #35050-061)/i mM sodium pyruvate (Gibco #11360-070)/1% penicillin-streptomycin (Invitrogen #15140-122)/DMEM (Gibco #11960-044)). The cell suspension was seeded in a poly-D-lysine coated T75 flask (Thermo Fisher Scientific #132704) and cultured for about 2 weeks. After culturing, the flask was shaken using a rotary shaker ([…] #WB-101SRC) for about 1 hour (37° C., 100 rpm), and the supernatant was discarded to remove microglia. Subsequently, oligodendrocyte progenitor cell separation medium was added to the flask, and the mixture was similarly shaken for about 22 hours (37° C., 200 rpm), and the supernatant was collected to prepare oligodendrocyte progenitor cells.
The oligodendrocyte progenitor cell prepared was suspended in a differentiation medium (2% B27 (Thermo Fisher Scientific, Inc. #17504-044)/1% penicillin-streptomycin (Invitrogen Corporation #15140-122)/10 ng/mL CNTF (PeproTech Inc. #AF-450-13)/DMEM (Gibco #11960-044)), and seeded on a 96-well plate coated with poly-L-ornithine (FUJIFILM Wako Pure Chemical Corporation #163-27421) under the condition of 0.65×10^4 cells/well, and on a 384-well plate under the condition of 2×10^3 cells/well using an automatic dispensing system (LABCYTE #Echo555). […] After culturing, the cells seeded on the 96-well plate were subjected to immunostaining against MBP using following methods: fixation (4% paraformaldehyde solution, 30 minutes, room temperature), PBS washing, membrane permeation treatment (0.1% Trion X-100 (SIGMA #X100-100ML)/PBS, 3 minutes, room temperature), blocking (3% BSA (SIGMA #A9647-10G)/PBS, 1 hour, room temperature), primary antibody reaction (MBP antibody (abcam plc #ab40390), 2.5 μg/mL, 4° C., 24 hours), PBS washing, secondary antibody reaction (Alexa488 anti-rabbit IgG (Thermo Fisher Scientific, Inc. #A-11034), 5 μg/mL, room temperature, 1 hour), PBS washing, and nuclear staining (Hoechst33342 (DOJINDO #NU043), 10 μg/mL, room temperature, 5 minutes). Subsequently, images of each well were acquired using a fluorescence microscope (KEYENCE CORPORATION #BZ-X800), the number of MBP-positive cells and Hoechst 33342-positive cells were measured using an image analysis application (KEYENCE CORPORATION #BZ-X800 Analyzer), and then the ratio (the number of MBP-positive cells/the number of Hoechst33342-positive cells) was calculated. The cells seeded on the 384-well plate were subjected to real-time PCR using Cells-to-CT 1-Step TaqMan Kit (Thermo Fisher Scientific, Inc. #A25602) and QuantStudio 12K Flex Real-Time PCR System (Thermo Fisher Scientific, Inc. #4472380). The experiment was performed in accordance with the protocol attached to the kit. MBP (Thermo Fisher Scientific, Inc. #Assay ID Rn00690616_ml) and β actin (Thermo Fisher Scientific, Inc. #Assay ID Rn00667869_ml) were used as primers, and the expression levels of each were measured and the ratio (MBP/β actin) was calculated.

The next data set has as its target T1, human VDR (Homo sapiens, UniProt P11473).
T1 sequence (P11473 1-427): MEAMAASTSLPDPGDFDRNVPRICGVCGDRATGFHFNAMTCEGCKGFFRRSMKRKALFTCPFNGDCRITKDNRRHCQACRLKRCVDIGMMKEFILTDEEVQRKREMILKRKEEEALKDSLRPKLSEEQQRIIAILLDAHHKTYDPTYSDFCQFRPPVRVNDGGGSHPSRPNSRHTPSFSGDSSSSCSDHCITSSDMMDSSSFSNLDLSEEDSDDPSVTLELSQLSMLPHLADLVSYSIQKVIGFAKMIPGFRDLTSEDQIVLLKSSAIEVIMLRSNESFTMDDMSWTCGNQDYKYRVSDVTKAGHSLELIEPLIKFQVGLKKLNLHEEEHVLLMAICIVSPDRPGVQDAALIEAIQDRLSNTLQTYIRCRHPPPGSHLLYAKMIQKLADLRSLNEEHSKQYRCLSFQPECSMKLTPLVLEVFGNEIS
T1 sequence (P19793 1-462 partner): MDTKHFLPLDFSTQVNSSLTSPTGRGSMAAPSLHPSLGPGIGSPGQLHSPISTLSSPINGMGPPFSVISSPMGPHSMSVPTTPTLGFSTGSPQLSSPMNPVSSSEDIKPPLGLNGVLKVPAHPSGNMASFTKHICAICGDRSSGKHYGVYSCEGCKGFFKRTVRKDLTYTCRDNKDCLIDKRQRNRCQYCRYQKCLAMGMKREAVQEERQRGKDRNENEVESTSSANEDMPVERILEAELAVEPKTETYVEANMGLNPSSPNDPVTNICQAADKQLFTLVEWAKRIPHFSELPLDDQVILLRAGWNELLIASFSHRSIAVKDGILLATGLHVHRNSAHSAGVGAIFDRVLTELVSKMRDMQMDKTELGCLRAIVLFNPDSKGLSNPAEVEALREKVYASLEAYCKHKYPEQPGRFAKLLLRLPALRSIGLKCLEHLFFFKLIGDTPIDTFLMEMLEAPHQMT
Briefly: Evaluation of VDR transcription activity in human osteoblasts (HOS cells), luciferase reporter. The note with it: Activity (EC50, VDR transcription activity), HOS cells transfected with human VDR, human RXRα and DR3 luciferase reporter; 21 hours. A general note: A reporter such as luciferase makes a cellular process visible.

Data set [2] is described as follows: Evaluation of brain penetration in mice (blood and brain concentration at brain Cmax). The data set is classed as in vivo, mouse. The note with it: 1 mg/kg single oral dose, C57BL/6J mice; for Concentration in blood (mean ± SD) at brain Cmax / Concentration in brain (mean ± SD) at brain Cmax: n=3; for Kp: male, mouse, brain/plasma, read-out: Concentration in brain/in blood ratio at brain Cmax. The method in brief:
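Male C57BL/6J mice (8 weeks, n=3) dosed orally once at 1 […] mg/kg; plasma and brain collected at 0.25, 0.5, 1, 2, 4 and 8 h. Compound extracted with acetonitrile from brain homogenate and plasma, quantified by LC/MS/MS.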

In data set [3] the test system is rat oligodendrocyte progenitor cells. Kind of data set: Promotive activity of rat oligodendrocyte progenitor cell differentiation-2 (immunostaining of MBP). It is filed as cell-based. The note with it: Test 2; vitamin D derivative 2 μM, T3 30 nM; 4 days. The method in brief: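 Rat OPCs prepared by shaking in separation medium about 22 h at 37 °C, 200 rpm, and collecting the supernatant.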

Structures are written as SMILES. Where two headings read alike, the source gives them in different places.

In general, EC50 refers to the midpoint of the concentration-response curve. As to `C[C@H](CN1CCCC(O)(C(F)F)C1)[C@H]1CC[C@H]2/C(=C/C=C3C[C@@H](O)C[C@H](O)C3)CCC[C@]12C` (single isomer, unassigned) [Compound C035a], in data set [1], the activation at 1 µM is at least 20%. The EC50 at human VDR is below 1 nM.
On the same counts, the results for `COC1(C)CCCN(C[C@@H](C)[C@H]2CC[C@H]3/C(=C/C=C4C[C@@H](O)C[C@H](O)C4)CCC[C@]23C)C1` (single isomer, unassigned) [Compound C045a] are at least 20% and 10 to 100 nM.
The like results for `C=C1C(O)CC(=C/C=C2\CCC[C@]3(C)[C@@H]([C@H](C)CN4CC[C@H](OC(F)(F)F)C4)CC[C@@H]23)C[C@H]1O` (stereo in doubt) [Compound B067, (1R,3S)-5-(2-((1R,3aS,7aR,E)-7a-methyl-1-((S)-1-((S)-3-(trifluoromethoxy)pyrrolidin-1-yl)propan-2-yl)octahydro-4H-inden-4-ylidene)ethylidene)-2-methylenecyclohexane-1,3-diol] were, in that order, at least 20% and 1 to 10 nM.
The like results for `C[C@H](CN1CC[C@@H](OC(F)(F)F)C1)[C@H]1CC[C@H]2/C(=C/C=C3CC(O)C[C@H](O)C3)CCC[C@]12C` (stereo in doubt) [Compound B070, (1R,3S)-5-(2-((1R,3aS,7aR,E)-7a-methyl-1-((S)-1-((R)-3-(trifluoromethoxy)pyrrolidin-1-yl)propan-2-yl)octahydro-4H-inden-4-ylidene)ethylidene)cyclohexane-1,3-diol] were, in that order, at least 20% and 10 to 100 nM.
On to `C=C1C(O)CC(=C/C=C2\CCC[C@]3(C)[C@@H]([C@H](C)CN4CC[C@](C)(O)C4)CC[C@@H]23)C[C@H]1O` (stereo in doubt) [Compound B073, (1R,3S)-5-(2-((1R,3aS,7aR,E)-1-((S)-1-((S)-3-hydroxy-3-methylpyrrolidin-1-yl)propan-2-yl)-7a-methyloctahydro-4H-inden-4-ylidene)ethylidene)-2-methylenecyclohexane-1,3-diol], for which the activation at 1 µM in data set [1] is at least 20%. For the same molecule, the EC50 at human VDR lay in the range of 1 to 10 nM.
On to `C=C1/C(=C\C=C2/CCC[C@]3(C)[C@@H]([C@H](C)CCN4CCO[C@H](C)C4)CC[C@@H]23)C[C@@H](O)CC1O` (stereo in doubt) [Compound D047, (1R,3R,Z)-5-(2-((1R,3aS,7aR,E)-7a-methyl-1-((R)-4-((R)-2-methylmorpholino)butan-2-yl)octahydro-4H-inden-4-ylidene)ethylidene)-4-methylenecyclohexane-1,3-diol], for which the activation at 1 µM in data set [1] was at least 20%.
Same read-out and setting: the result for `C=C1/C(=C\C=C2/CCC[C@]3(C)[C@@H]([C@H](C)CCN4CCO[C@@H](C)C4)CC[C@@H]23)C[C@@H](O)CC1O` (stereo in doubt) [Compound D048, (1R,3R,Z)-5-(2-((1R,3aS,7aR,E)-7a-methyl-1-((R)-4-((S)-2-methylmorpholino)butan-2-yl)octahydro-4H-inden-4-ylidene)ethylidene)-4-methylenecyclohexane-1,3-diol] reads at least 20%.
Consider `C=C1[C@H](O)CC(=C/C=C2\CCC[C@]3(C)[C@@H]([C@H](C)CN4CCC(C(C)(F)F)CC4)CC[C@@H]23)C[C@H]1O` [Compound C055, (1R,3R)-5-(2-((1R,3aS,7aR,E)-1-((S)-1-(4-(1,1-difluoroethyl)piperidin-1-yl)propan-2-yl)-7a-methyloctahydro-4H-inden-4-ylidene)ethylidene)-2-methylenecyclohexane-1,3-diol], for which, in data set [2], the “Concentration in blood (mean ± SD) at brain Cmax” value amounted to 190 ± 23 nM and the “Concentration in brain (mean ± SD) at brain Cmax” value stood at 338 ± 36 pmol/g. For the same molecule, the Kp in data set [2] (C57BL/6J, po, 1 mg/kg) is 1.78. Also, the “Mean (number of MBP-positive cells/number of Hoechst33342-positive cells)” value in data set [3] was determined as 0.48. For the same molecule, the EC50 on human VDR fell in the range of 10 to 100 nM.
Consider `C[C@H](CN1CCOC2(CC2)C1)[C@H]1CC[C@H]2/C(=C/C=C3C[C@@H](O)C[C@H](O)C3)CCC[C@]12C` [Compound D019, (1R,3R)-5-(2-((1R,3aS,7aR,E)-1-((S)-1-(4-oxa-7-azaspiro[2.5]octan-7-yl)propan-2-yl)-7a-methyloctahydro-4H-inden-4-ylidene)ethylidene)cyclohexane-1,3-diol], for which, in data set [2], the “Concentration in blood (mean ± SD) at brain Cmax” value was 280 ± 53 nM, the “Concentration in brain (mean ± SD) at brain Cmax” value is listed as 811 ± 163 pmol/g and the Kp was determined as 2.89. In addition, in data set [3], the “Mean (number of MBP-positive cells/number of Hoechst33342-positive cells)” value was 0.57. In addition, the EC50 at human VDR was in the range of 10 to 100 nM.
Take `C=C1/C(=C\C=C2/CCC[C@]3(C)[C@@H]([C@H](C)CCN4CCO[C@@H](C(F)F)C4)CC[C@@H]23)C[C@@H](O)C[C@@H]1O` [Compound D037, (1R,3 S,Z)-5-(2-((1R,3aS,7aR,E)-1-((R)-4-((R)-2-(difluoromethyl)morpholino)butan-2-yl)-7a-methyloctahydro-4H-inden-4-ylidene)ethylidene)-4-methylenecyclohexane-1,3-diol]: the activation at 1 µM in data set [1] is at least 20%.
Still for that read-out and setting: the result for `C=C1[C@H](O)CC(=C/C=C2\CCC[C@]3(C)[C@@H]([C@H](C)CCN4C[C@@H](C)OC[C@@H]4C)CC[C@@H]23)C[C@H]1O` [Compound D038, (1R,3R)-5-(2-((1R,3aS,7aR,E)-1-((R)-4-((2R,5S)-2,5-dimethylmorpholino)butan-2-yl)-7a-methyloctahydro-4H-inden-4-ylidene)ethylidene)-2-methylenecyclohexane-1,3-diol] reads at least 20%.
